Test results from US8802849B2, “Tricyclic benzo[4,5]thieno-[2,3-d]pyrimidine-4-yl-amin derivatives, their salts, process for producing the compounds and their pharmaceutical use” (Vichem Chemie Kutató Kft., priority 2008, dated 2014).

How the values were obtained:
[1] = molecular target: SRPK1 (Homo sapiens, UniProt Q96SB4); assay: SRPK1 kinase assay; format: biochemical; details: 10 μM compound; read-out: SRPK1 percent of inhibition
Procedure: (§1) General description of the kinase assays: the kinase activity was assayed in 96-well microtiter plates at a final compound concentration of 10 μM in a total volume of 50 μl. Compounds were dissolved in 100% DMSO to prepare a 10 mM stock solution and than diluted with buffer to reach a 10 μM (or the required) final concentration. The kinase concentration was used to yield 10% ATP turn over. The ATP concentration was used at the KmATP and 12.5 μCi/ml adenosine 5′[γ-33P]triphosphate. The substrate concentration was used at 5 fold excess over the Km for the substrate. The reaction was incubated for 1 hour at room temperature and stopped by addition of 10 μl 50 mM EDTA. The assay was transferred to a 96 well MAPH filter plate (Millipore). The radioactivity was counted on a Microbeta microplate counter.

[2] = molecular target: T1, IKK-beta (Homo sapiens, UniProt O14920); assay: IKK-beta kinase assay; format: biochemical; details: 10 μM compound; read-out: IKK-beta percent of inhibition
T1 sequence (O14920 1-756): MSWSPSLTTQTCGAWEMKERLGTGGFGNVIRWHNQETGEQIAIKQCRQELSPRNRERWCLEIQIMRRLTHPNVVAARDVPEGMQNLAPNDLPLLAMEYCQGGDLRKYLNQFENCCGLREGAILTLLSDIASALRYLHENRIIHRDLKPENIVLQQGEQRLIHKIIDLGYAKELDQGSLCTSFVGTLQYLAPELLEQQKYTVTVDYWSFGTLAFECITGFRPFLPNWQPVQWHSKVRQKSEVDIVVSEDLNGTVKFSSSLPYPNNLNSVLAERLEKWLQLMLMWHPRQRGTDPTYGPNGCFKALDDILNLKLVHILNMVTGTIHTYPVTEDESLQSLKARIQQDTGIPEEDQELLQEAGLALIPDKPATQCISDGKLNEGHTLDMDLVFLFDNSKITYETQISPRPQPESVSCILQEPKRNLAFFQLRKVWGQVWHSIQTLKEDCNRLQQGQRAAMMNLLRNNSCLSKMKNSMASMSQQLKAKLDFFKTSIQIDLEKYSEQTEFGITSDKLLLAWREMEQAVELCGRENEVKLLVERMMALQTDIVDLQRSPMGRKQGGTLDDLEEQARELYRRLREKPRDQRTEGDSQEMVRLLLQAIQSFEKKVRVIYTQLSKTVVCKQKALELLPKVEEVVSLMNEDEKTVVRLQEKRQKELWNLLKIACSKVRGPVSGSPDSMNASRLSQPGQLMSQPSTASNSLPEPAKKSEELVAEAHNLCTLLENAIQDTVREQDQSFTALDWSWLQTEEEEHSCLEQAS
Procedure: as §1

[3] = molecular target: P56Lck (Homo sapiens, UniProt P06239); assay: P56Lck kinase assay; format: biochemical; details: 10 μM compound; read-out: P56Lck percent of inhibition
Procedure: as §1

[4] = molecular target: Jnk1a1 (Homo sapiens, UniProt P45983); assay: Jnk1a1 kinase assay; format: biochemical; details: 10 μM compound; read-out: Jnk1a1 percent of inhibition
Chain of Jnk1a1 (P45983 1-384 isoform P45983-2): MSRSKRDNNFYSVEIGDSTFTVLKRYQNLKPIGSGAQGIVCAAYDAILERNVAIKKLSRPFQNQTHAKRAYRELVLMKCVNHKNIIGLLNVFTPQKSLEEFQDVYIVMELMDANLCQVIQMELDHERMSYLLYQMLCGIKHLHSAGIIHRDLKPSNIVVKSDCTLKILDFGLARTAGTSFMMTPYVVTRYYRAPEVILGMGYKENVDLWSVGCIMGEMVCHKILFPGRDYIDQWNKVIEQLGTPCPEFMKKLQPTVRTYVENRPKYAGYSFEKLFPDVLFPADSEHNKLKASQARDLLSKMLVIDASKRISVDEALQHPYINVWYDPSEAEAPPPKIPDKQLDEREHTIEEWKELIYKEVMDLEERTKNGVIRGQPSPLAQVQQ
Procedure: as §1

[5] = molecular target: c-Src (Homo sapiens, UniProt P12931); assay: c-Src kinase assay; format: biochemical; details: 10 μM compound; read-out: c-Src percent of inhibition
Procedure: as §1

[6] = molecular target: CK1-alpha (Homo sapiens, UniProt P48729); assay: CK1-alpha kinase assay; format: biochemical; details: 10 μM compound; read-out: CK1-alpha percent of inhibition
Chain of CK1-alpha (P48729 whole entry): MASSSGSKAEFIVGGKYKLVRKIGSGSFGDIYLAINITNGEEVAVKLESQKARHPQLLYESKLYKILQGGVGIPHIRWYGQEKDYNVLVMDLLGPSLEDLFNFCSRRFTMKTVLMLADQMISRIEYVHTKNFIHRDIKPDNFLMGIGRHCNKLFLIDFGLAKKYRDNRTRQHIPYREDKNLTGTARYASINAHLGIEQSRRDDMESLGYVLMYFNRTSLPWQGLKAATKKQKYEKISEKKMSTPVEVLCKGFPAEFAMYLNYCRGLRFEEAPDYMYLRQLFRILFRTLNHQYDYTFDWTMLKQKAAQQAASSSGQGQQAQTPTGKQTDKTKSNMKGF
Procedure: as §1

[7] = molecular target: EGFR (Homo sapiens, UniProt P00533); assay: EGFR kinase assay (33P-ATP filter plate); format: biochemical; details: for inhibition at 10 µM: 10 μM compound, read-out: EGFR percent of inhibition; for IC50: EGFR-PTK assay
Chain of EGFR (P00533 25-1210): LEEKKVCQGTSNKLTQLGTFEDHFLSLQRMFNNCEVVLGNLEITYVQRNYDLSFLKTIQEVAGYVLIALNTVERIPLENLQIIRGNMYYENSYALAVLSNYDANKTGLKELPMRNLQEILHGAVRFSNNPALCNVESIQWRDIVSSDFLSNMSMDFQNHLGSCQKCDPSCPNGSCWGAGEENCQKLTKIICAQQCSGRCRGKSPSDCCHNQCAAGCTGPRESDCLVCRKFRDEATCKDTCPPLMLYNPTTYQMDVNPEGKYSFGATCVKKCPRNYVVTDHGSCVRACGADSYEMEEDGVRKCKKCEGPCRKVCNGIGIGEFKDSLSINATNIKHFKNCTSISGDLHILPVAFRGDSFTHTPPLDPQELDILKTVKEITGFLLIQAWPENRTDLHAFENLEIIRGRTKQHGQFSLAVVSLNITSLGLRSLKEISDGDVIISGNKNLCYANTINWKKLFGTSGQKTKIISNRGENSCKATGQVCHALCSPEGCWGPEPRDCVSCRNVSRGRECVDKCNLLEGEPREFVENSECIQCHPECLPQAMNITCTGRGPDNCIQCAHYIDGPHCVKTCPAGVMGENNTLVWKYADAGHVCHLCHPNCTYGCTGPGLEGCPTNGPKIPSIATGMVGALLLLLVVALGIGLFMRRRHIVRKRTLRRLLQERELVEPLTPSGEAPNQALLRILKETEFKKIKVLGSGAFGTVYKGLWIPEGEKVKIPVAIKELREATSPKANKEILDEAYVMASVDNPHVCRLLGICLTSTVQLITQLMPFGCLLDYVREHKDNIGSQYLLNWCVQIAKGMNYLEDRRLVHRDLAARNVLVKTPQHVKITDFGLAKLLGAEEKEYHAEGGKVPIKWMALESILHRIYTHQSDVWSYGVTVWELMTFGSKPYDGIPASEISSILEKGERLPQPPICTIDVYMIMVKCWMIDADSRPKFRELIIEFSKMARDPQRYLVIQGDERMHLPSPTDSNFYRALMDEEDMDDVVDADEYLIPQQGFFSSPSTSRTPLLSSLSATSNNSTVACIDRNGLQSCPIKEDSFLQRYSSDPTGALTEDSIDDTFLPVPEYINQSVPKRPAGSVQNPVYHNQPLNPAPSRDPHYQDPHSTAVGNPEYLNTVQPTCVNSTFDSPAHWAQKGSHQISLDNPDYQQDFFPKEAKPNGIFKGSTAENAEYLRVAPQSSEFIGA
Procedure: as §1

[8] = molecular target: CDK2/CycA (Homo sapiens, UniProt P24941); assay: CDK2/CycA kinase assay; format: biochemical; details: 10 μM compound; read-out: CDK2/CycA percent of inhibition
Procedure: as §1

[9] = molecular target: cMet (Homo sapiens, UniProt P08581); assay: cMet kinase assay; format: biochemical; details: 10 μM compound; read-out: cMet percent of inhibition
Chain of cMet (P08581 25-1390): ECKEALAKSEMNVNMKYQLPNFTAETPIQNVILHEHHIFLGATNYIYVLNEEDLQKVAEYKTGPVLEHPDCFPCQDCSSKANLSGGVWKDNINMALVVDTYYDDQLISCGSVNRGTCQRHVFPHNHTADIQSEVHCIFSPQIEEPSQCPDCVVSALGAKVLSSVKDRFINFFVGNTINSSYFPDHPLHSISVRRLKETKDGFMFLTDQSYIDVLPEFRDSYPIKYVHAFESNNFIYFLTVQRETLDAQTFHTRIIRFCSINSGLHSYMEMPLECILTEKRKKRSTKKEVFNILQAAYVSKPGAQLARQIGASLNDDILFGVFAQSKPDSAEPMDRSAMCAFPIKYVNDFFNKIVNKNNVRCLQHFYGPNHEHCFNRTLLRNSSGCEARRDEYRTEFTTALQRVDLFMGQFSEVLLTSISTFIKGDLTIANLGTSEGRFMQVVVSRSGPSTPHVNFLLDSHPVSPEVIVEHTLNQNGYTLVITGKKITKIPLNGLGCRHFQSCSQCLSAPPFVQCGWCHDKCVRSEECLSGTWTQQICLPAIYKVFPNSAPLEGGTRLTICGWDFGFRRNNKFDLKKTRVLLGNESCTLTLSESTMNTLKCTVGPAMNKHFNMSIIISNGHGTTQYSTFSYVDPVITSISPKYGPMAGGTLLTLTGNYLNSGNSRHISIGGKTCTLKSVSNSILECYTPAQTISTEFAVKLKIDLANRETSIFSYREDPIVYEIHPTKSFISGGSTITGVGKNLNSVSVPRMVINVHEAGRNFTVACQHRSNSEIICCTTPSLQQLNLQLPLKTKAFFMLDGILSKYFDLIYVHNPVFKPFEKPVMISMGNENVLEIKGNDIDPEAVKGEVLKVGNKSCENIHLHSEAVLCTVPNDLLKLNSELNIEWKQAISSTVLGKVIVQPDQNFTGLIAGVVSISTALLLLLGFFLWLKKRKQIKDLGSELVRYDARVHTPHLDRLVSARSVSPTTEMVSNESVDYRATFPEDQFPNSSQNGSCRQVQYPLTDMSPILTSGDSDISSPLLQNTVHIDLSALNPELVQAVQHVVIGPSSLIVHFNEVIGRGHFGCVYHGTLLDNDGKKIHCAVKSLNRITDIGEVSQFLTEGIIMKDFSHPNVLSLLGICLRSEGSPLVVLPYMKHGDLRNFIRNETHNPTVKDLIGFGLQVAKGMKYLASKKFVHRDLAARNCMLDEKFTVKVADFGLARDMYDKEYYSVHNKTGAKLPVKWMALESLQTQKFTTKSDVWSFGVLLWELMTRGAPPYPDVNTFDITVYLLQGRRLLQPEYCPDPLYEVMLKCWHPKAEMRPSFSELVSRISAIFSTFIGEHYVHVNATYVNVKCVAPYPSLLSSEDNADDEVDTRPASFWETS
Procedure: as §1

[10] = molecular target: RSK1 (Homo sapiens, UniProt Q15418); assay: RSK1 kinase assay; format: biochemical; details: 10 μM compound; read-out: RSK1 percent of inhibition
Chain of RSK1 (Q15418 whole entry, species assumed): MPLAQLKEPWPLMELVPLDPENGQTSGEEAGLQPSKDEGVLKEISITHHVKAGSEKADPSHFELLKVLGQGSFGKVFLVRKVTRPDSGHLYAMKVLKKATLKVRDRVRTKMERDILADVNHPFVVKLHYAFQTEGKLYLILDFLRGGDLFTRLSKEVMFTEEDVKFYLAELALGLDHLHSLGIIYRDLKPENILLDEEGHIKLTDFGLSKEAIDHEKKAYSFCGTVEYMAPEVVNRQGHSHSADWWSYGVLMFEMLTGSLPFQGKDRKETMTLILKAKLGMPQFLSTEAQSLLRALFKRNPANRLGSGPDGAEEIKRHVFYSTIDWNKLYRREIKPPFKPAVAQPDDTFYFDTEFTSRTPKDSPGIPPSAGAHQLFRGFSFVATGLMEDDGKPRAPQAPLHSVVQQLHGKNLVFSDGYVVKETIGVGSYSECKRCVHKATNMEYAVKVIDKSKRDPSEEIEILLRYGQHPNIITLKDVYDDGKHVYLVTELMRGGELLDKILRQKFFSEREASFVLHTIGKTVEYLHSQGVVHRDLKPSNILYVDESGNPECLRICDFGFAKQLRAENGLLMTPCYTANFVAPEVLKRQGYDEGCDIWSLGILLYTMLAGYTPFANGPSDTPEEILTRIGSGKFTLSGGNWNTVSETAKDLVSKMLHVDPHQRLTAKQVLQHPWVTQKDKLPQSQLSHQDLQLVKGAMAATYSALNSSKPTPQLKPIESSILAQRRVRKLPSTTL
Procedure: as §1

[11] = molecular target: GSK-3beta (Homo sapiens, UniProt P49841); assay: GSK-3beta kinase assay; format: biochemical; details: 10 μM compound; read-out: GSK-3beta percent of inhibition
Procedure: as §1

[12] = molecular target: c-Raf (Homo sapiens, UniProt P04049); assay: c-Raf kinase assay; format: biochemical; details: 10 μM compound; read-out: c-Raf percent of inhibition
Procedure: as §1

[13] = molecular target: P70S6K (Homo sapiens, UniProt P23443); assay: P70S6K kinase assay; format: biochemical; details: 10 μM compound; read-out: P70S6K percent of inhibition
Procedure: as §1

[14] = molecular target: PDGFR-beta (Homo sapiens, UniProt P09619); assay: PDGFR-beta kinase assay; format: biochemical; details: 10 μM compound; read-out: PDGFR-beta percent of inhibition
Procedure: as §1

[15] = molecular target: ROCK2 (Homo sapiens, UniProt O75116); assay: ROCK2 kinase assay; format: biochemical; details: 10 μM compound; read-out: ROCK2 percent of inhibition
Procedure: as §1

[16] = molecular target: AKT1/PKBa (Homo sapiens, UniProt P31749); assay: AKT1/PKBa kinase assay; format: biochemical; details: 10 μM compound; read-out: AKT1/PKBa percent of inhibition
Procedure: as §1

[17] = molecular target: MAPK-ERK1 (Homo sapiens, UniProt P27361); assay: MAPK-ERK1 kinase assay; format: biochemical; details: 10 μM compound; read-out: MAPK-ERK1 percent of inhibition
Chain of MAPK-ERK1 (P27361 whole entry): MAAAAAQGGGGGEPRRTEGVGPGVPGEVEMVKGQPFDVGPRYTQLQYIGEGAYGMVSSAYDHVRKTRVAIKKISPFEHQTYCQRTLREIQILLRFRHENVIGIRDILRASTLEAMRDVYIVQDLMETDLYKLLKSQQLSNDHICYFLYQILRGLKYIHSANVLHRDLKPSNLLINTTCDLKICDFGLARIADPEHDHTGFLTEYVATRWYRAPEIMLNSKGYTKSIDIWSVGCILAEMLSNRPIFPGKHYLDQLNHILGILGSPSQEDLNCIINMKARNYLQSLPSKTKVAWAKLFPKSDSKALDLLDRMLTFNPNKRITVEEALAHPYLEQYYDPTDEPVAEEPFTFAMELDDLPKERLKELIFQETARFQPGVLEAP
Procedure: as §1

[18] = molecular target: InsR (Homo sapiens, UniProt P06213); assay: InsR kinase assay; format: biochemical; details: 10 μM compound; read-out: InsR percent of inhibition
Procedure: as §1

[19] = molecular target: Abl (Homo sapiens, UniProt P00519); assay: Abl kinase assay; format: biochemical; details: 10 μM compound; read-out: Abl percent of inhibition
Procedure: as §1

[20] = molecular target: Kit (Homo sapiens, UniProt P10721); assay: Kit kinase assay; format: biochemical; details: 10 μM compound; read-out: Kit percent of inhibition
Procedure: as §1

Chain of SRPK1 (Q96SB4 whole entry, species assumed): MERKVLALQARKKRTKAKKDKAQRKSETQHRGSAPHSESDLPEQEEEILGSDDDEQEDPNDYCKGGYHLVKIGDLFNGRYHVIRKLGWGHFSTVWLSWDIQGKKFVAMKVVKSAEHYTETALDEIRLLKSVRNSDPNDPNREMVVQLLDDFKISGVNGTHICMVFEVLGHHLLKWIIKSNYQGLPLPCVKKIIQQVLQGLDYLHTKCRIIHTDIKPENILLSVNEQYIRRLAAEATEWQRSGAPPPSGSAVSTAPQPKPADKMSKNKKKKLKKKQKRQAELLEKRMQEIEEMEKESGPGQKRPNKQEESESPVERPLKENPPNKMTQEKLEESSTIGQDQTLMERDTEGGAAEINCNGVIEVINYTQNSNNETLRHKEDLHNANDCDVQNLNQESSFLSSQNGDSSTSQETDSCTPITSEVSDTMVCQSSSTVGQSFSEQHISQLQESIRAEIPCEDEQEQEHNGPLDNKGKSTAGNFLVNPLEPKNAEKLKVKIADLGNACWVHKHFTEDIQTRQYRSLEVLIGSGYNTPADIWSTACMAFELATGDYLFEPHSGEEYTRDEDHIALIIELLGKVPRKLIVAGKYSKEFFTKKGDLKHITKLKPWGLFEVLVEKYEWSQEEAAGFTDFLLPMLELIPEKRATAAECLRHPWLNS

| Compound | inhibition at 10 µM [1] [%] | inhibition at 10 µM [2] [%] | inhibition at 10 µM [3] [%] | inhibition at 10 µM [4] [%] | inhibition at 10 µM [5] [%] | inhibition at 10 µM [6] [%] | inhibition at 10 µM [7] [%] | inhibition at 10 µM [8] [%] | inhibition at 10 µM [9] [%] | inhibition at 10 µM [10] [%] | inhibition at 10 µM [11] [%] | inhibition at 10 µM [12] [%] | inhibition at 10 µM [13] [%] | inhibition at 10 µM [14] [%] | inhibition at 10 µM [15] [%] | inhibition at 10 µM [16] [%] | inhibition at 10 µM [17] [%] | inhibition at 10 µM [18] [%] | inhibition at 10 µM [19] [%] | inhibition at 10 µM [20] [%] | other results |
| --- | --- | --- | --- | --- | --- | --- | --- | --- | --- | --- | --- | --- | --- | --- | --- | --- | --- | --- | --- | --- | --- |
| COc1cccc(Nc2nc(C3CC3)nc3sc4ccccc4c23)c1 [Compound 20, (2-Cyclopropyl-benzo[4,5]thieno[2,3-d]pyrimidin-4-yl)-(3-methoxy-phenyl)-amine] | 18 | 9 | 0 | -5 | 23 | 3 | 46 | 4 | -2 | 7 | 0 | 9 | 9 | -1 | 0 | -2 | 21 | -12 | 7 | 8 | melting point: 198 °C |
| Clc1cccc(Nc2nc(C3CC3)nc3sc4ccccc4c23)c1 [Compound 17, (2-Cyclopropyl-benzo[4,5]thieno[2,3-d]pyrimidin-4-yl)-(3-chloro-phenyl)-amine] | 9 | 8 | 9 | -8 | 1 | 0 | 86 | -2 | -5 | -7 | 3 | 12 | 7 | 0 | 2 | -1 | 2 | -5 | 7 | 11 | melting point: 188 °C |
| Clc1ccc(Nc2ncnc3sc4c(c23)CCCC4)cc1 [Compound 7, (4-Chloro-phenyl)-(5,6,7,8-tetrahydro-benzo[4,5]thieno[2,3-d]pyrimidin-4-yl)-amine] | -3 | 9 | 30 | -7 | 25 | 5 | 100 | -1 | -7 | -15 | 2 | -20 | -17 | 15 | 3 | -11 | -9 | -16 | -9 | 10 | IC50 [7]: 12.8 nM; melting point: 191.2 °C |
| Fc1cccc(Nc2nc(C3CC3)nc3sc4ccccc4c23)c1 [Compound 16, (2-Cyclopropyl-benzo[4,5]thieno[2,3-d]pyrimidin-4-yl)-(3-fluoro-phenyl)-amine] | 10 | -4 | 7 | -4 | 2 | 0 | 60 | -2 | 0 | 2 | 1 | -4 | 8 | -3 | 9 | -7 | 6 | 2 | 3 | -1 | melting point: 193 °C |
| Fc1cccc(Nc2ncnc3sc4ccccc4c23)c1 [Compound 21, Benzo[4,5]thieno[2,3-d]pyrimidin-4-yl-(3-fluoro-phenyl)-amine] | 8 | 2 | -9 | -2 | 3 | 0 | 98 | -10 | 1 | 1 | 3 | -2 | 7 | -3 | 4 | 3 | 1 | 7 | -4 | -4 | IC50 [7]: 26.9 nM; melting point: 171 °C |

Now from value to molecule, other results behind:

| inhibition at 10 µM [1] [%] | inhibition at 10 µM [2] [%] | inhibition at 10 µM [3] [%] | inhibition at 10 µM [4] [%] | inhibition at 10 µM [5] [%] | inhibition at 10 µM [6] [%] | inhibition at 10 µM [7] [%] | inhibition at 10 µM [8] [%] | inhibition at 10 µM [9] [%] | inhibition at 10 µM [10] [%] | inhibition at 10 µM [11] [%] | inhibition at 10 µM [12] [%] | inhibition at 10 µM [13] [%] | inhibition at 10 µM [14] [%] | inhibition at 10 µM [15] [%] | inhibition at 10 µM [16] [%] | inhibition at 10 µM [17] [%] | inhibition at 10 µM [18] [%] | inhibition at 10 µM [19] [%] | inhibition at 10 µM [20] [%] | Compound | other results |
| --- | --- | --- | --- | --- | --- | --- | --- | --- | --- | --- | --- | --- | --- | --- | --- | --- | --- | --- | --- | --- | --- |
| 11 | -6 | 6 | -4 | 5 | 0 | 72 | -3 | -7 | -4 | 2 | -5 | 2 | -4 | 12 | -1 | -4 | -3 | -3 | -12 | N#Cc1cccc(Nc2nc(C3CC3)nc3sc4c(c23)CCCC4)c1 [Compound 14, 3-(2-Cyclopropyl-5,6,7,8-tetrahydro-benzo[4,5]thieno[2,3-d]pyrimidin-4-ylamino)-benzonitrile] | melting point: 176.3 °C |
| -5 | 19 | 25 | -3 | 6 | 6 | 98 | -1 | -10 | -22 | 3 | 16 | -26 | 4 | 6 | -7 | -14 | -6 | -19 | -5 | Fc1cccc(Nc2ncnc3sc4c(c23)CCCC4)c1 [Compound 2, (3-Fluoro-phenyl)-(5,6,7,8-tetrahydro-benzo[4,5]thieno[2,3-d]pyrimidin-4-yl)-amine] | IC50 [7]: 12.4 nM; melting point: 210.6 °C |
